From publication PMC4747102 (European journal of medicinal chemistry, 2015) come the findings set out here.

The subject of experiment [1] is MDA-MB-231 (triple negative breast cancer) cells. It is filed as cell-based, human.
Experiment [2] relates to MCF-7 (ER+ breast cancer) cells. The experiment is described as follows: cells. It counts as cell-based, human.

The structures appear in SMILES notation.

On to `CC(C)CC(c1cc(O)c2c(c1O)C(=O)c1ccccc1C2=O)N(CCCl)CCCl` (stereo not shown) [5f, 2-(1-(Bis(2-chloroethyl)amino)-3-methylbutyl)-1,4-dihydroxyanthracene-9,10-dione], for which the “fold stronger than compound 5b” value in experiment [1] is recorded as “approximately 70 fold”.
For `COc1cccc2c1C(=O)c1c(O)c3c(c(O)c1C2=O)C[C@@](O)(C(=O)CO)C[C@@H]3O[C@H]1C[C@H](N)[C@H](O)[C@H](C)O1` [Doxorubicin, reference compound], the IC50 in experiment [2] (Homo sapiens, MCF7, 120 h, read-out: IC50 MCF-7) is 0.294 nM.
Take `O=C1c2ccccc2C(=O)c2c(O)c(C(c3ccc(F)cc3)N(CCCl)CCCl)cc(O)c21` (stereo not shown) [5k, 2-((Bis(2-chloroethyl)amino)(4-fluorophenyl)methyl)-1,4-dihydroxyanthracene-9,10-dione]: the “times more potent than chlorambucil” value in experiment [2] is listed as “over 100 times”.
In the case of `O=C1c2ccccc2C(=O)c2c(O)c(C(c3ccccc3F)N(CCCl)CCCl)cc(O)c21` (stereo not shown) [5i, 2-((Bis(2-chloroethyl)amino) (2-fluorophenyl)methyl)-1,4-dihydroxyanthracene-9,10-dione], the “fold increase in inhibitory activity compared to chlorambucil” value in experiment [1] is “ca. 900 fold”.
